According to patent publication US20220306630A1, “AGONISTS OF ROR GAMMAt” (BRISTOL-MYERS SQUIBB COMPANY, priority 2019, published 2022):
pEC50: −log10 of the molar value.

target: T1, RORgT (Homo sapiens, UniProt P51449); experiment: RORgT Gal4 Luciferase Reporter Gene Assay; format: cell-based; details: engineered Jurkat cells overexpressing RORgT (LBD or full length) with Gal4 Luc reporter; 18 hours at 37° C.; 40 μM to 0.67 nM; read-out: RORg_GAL4 EC50
T1 construct: Gal4 (fusion partner); expressed in transfected cells; host or cells: engineered Jurkat cells (Jurkat pEx/Gal/hRORγ CLBD/HYG pG5luc/blast)
T1 sequence (P51449 267-516): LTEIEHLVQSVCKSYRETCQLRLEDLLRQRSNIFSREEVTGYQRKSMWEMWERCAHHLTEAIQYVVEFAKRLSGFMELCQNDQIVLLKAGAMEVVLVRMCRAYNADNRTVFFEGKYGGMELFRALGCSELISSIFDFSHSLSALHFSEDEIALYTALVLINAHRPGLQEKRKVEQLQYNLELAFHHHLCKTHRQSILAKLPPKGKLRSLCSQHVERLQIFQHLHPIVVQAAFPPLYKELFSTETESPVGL
Protocol: The compound and the cells were incubated for 18 hours at 37° C. in a cell culture incubator. Cells were then lysed with 15 uL of Steady-Glo Luciferase Assay reagent (Promega EZ550), followed by centrifuging the assay plates at 1500 RPM for 1 minute. Subsequently, the plates were read on the Envision (PerkinElmer). The inhibition of constitutive activity of RORgT achieved by graded concentrations of compound was calculated as a percentage of the luminescence signal window reduction over a control compound.

Compound	pEC50
COc1ccc(Oc2c(Cl)ccc(C(=O)NCC3CCS(=O)(=O)CC3)c2Cl)cc1C(C)C [Example 100]	6.93
CCS(=O)(=O)N[C@@H]1CCN(CC(=O)Nc2cc(Cl)c(Oc3ccc(OC)c(C(C)C)c3)c(Cl)c2)C1 [Example 159]	6.42
CC(C)(F)c1cc(F)cc(Oc2c(Cl)cc(NC(=O)Cc3ccc(S(C)(=O)=O)cc3)cc2Cl)c1 [Example 325]	8.14
COc1ncc(Oc2c(Cl)ccc(CNC(=O)C3CCN(S(C)(=O)=O)CC3)c2Cl)cc1C(C)C [Example 144]	8.18
CC(C)c1cc(F)cc(Oc2c(Cl)ccc(C(=O)NC(C)c3ccc(S(C)(=O)=O)cc3)c2Cl)c1 (stereo not shown) [Example 136]	7.89
COc1ccc(Oc2c(Cl)cc(NC(=O)Cc3ccc(C)nc3)cc2Cl)cc1C(C)C [Example 344]	7.12
COc1ccc(Oc2c(Cl)ccc(C(=O)NCc3ccc(S(N)(=O)=O)nc3)c2Cl)cc1C(C)C [Example 101]	7.85
COc1ccc(Oc2c(Cl)ccc(C(=O)N(C)CC3CCN(S(N)(=O)=O)CC3)c2Cl)cc1C(C)C [Example 103]	7.30
NS(=O)(=O)c1ccc(CNC(=O)c2ccc(Cl)c(Oc3cc(F)cc(CCC(F)(F)F)c3)c2Cl)cc1 [Example 326]	8.00
COc1ccc(Oc2c(Cl)cc(NC(=O)C3(c4cnccn4)CC3)cc2Cl)cc1C(C)C [Example 346]	6.09
COc1ccc(Oc2c(Cl)ccc(C(=O)N3CCC4(CC3)CN(C=O)C4)c2Cl)cc1C(C)C [Example 341]	7.12
COc1ccc(Oc2c(Cl)cc(NC(=O)Cc3cnc[nH]3)cc2Cl)cc1C(C)C [Example 250]	6.30
CCS(=O)(=O)N[C@@H]1CCCN(CC(=O)Nc2cc(Cl)c(Oc3ccc(OC)c(C(C)C)c3)c(Cl)c2)C1 [Example 167]	6.61
COc1ccc(Oc2c(Cl)cc3[nH]c(Cc4cccnc4)nc3c2Cl)cc1C(C)C [Example 309]	6.39
COc1ccc(Oc2c(Cl)cc(N3CC(CO)OC3=O)cc2Cl)cc1C(C)C (stereo not shown) [Example 10, 3-(3,5-dichloro-4-(3-isopropyl-4-methoxyphenoxy)phenyl)-5-(hydroxymethyl) oxazolidin-2-one]	5.67
CC(C)c1cc(F)cc(Oc2c(Cl)ccc(C(=O)N3CCC4(CC3)CN(S(=O)(=O)C3CC3)C4)c2Cl)c1 [Example 125]	6.26
COc1ccc(Oc2c(Cl)cc(NC(=O)CN3CC[C@@H](NS(C)(=O)=O)C3)cc2Cl)cc1C(C)C [Example 160]	6.49
COc1ccc(Oc2c(Cl)cc(NC(=O)CC3CCCN(S(C)(=O)=O)C3)cc2Cl)cc1C(C)C (single isomer, unassigned) [Example 43, N-(3,5-dichloro-4-(3-isopropyl-4-methoxyphenoxy)phenyl)-2-(1-(methylsulfonyl)piperidin-3-yl)acetamide]	6.61
CCS(=O)(=O)N[C@H]1CCN(CC(=O)Nc2cc(Cl)c(Oc3ccc(OC)c(C(C)C)c3)c(Cl)c2)C1 [Example 164]	7.10
COc1ccc(Oc2c(Cl)ccc(C(=O)NCc3cnc(C)cn3)c2Cl)cc1C(C)C [Example 206]	7.00
COc1ccc(Oc2c(Cl)ccc(NC(=O)Cc3ccc(S(N)(=O)=O)cc3)c2Cl)cc1C(C)C [Example 61]	7.34
COc1ccc(Oc2c(Cl)ccc(C(=O)N3CCC4(CC3)CN(S(C)(=O)=O)C4)c2Cl)cc1C(C)C [Example 109]	7.77
COC(=O)c1cccc(C(=O)Nc2cc(Cl)c(Oc3ccc(OC)c(C(C)C)c3)c(Cl)c2)c1 [Example 288]	5.90
COc1ccc(Oc2c(Cl)ccc(C(=O)NCc3ccccn3)c2Cl)cc1C(C)C [Example 194]	5.19
COc1ncc(Oc2c(Cl)ccc(C(=O)NCc3ccc(S(N)(=O)=O)cc3)c2Cl)cc1C(C)C [Example 117]	8.22
COc1ccc(Oc2c(Cl)ccc(C(=O)NC3CCC(O)CC3)c2Cl)cc1C(C)C (stereo not shown) [Example 197]	6.07
COc1ccc(Oc2c(Cl)ccc(NC(=O)CC3CN(S(C)(=O)=O)C3)c2Cl)cc1C(C)C [Example 58]	6.42
COc1ccc(Oc2c(Cl)cc(NC(=O)CCC(=O)O)cc2Cl)cc1C(C)C [Example 340]	5.26
